Laboratory results published in patent US10471046B2, “Method for treating, preventing, or reducing the risk of skin infection” (Melinta Subsidiary Corp., priority 2014, dated 2019).
Values after ≈ are worked out from the molar mass of the structure shown.

Test system: S. aureus
Assay: Minimum inhibitory concentrations (MICs) for S. aureus of exemplary compounds (Table 2)
Type: cell-based
Settings: Staphylococcus aureus, minimum inhibitory concentrations for S. aureus; read-out: MICs
How it was run: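 Growth of S. aureus in media with or without compound, by broth microdilution in microtiter trays following NCCLS M7-A5 guidelines. Values are MICs in μg/mL.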

Compound	MIC [µg/mL]
CC(=O)NC[C@H]1CN(c2ccc(-c3ccc(CN4CCN(c5ncc(C(F)(F)F)cc5Cl)CC4)cc3)c(F)c2)C(=O)O1 [Compound 1038, N-(3-{4′-[4-(3-Chloro-5-trifluoromethyl-pyridin-2-yl)-piperazin-1-ylmethyl]-2-fluoro-biphenyl-4-yl}-2-oxo-oxazolidin-5-(S)-ylmethyl)-acetamide]	128 (≈ 211 µM)
CC(=O)NC[C@H]1CN(c2ccc(-c3ccc(CNCCn4ccnn4)cc3)c(F)c2)C(=O)O1 [Compound 4262, N-(3-{2-Fluoro-4′-[(2-[1,2,3]triazol-1-yl-ethylamino)-methyl]-biphenyl-4-yl}-2-oxo-oxazolidin-5-(S)-ylmethyl)-acetamide]	2 (≈ 4.42 µM)
CC(=O)NC[C@H]1CN(c2ccc(-c3ccc(CNCc4cnn[nH]4)nc3)c(F)c2)C(=O)O1 [Compound 4277, N-{3-[3-Fluoro-4-(6-{[(3H-[1,2,3]triazol-4-ylmethyl)-amino]-methyl}-pyridin-3-yl)-phenyl]-2-oxo-oxazolidin-5-(S)-ylmethyl}-acetamide]	4 (≈ 9.1 µM)
CC(=O)NC[C@H]1CN(c2ccc(-c3ccc([C@@H](N)Cn4ccnc4)cc3)c(F)c2)C(=O)O1 [Compound 1031, N-{3-[4′-(R)-(1-Amino-2-imidazol-1-yl-ethyl)-2-fluoro-biphenyl-4-yl]-2-oxo-oxazolidin-5-(S)-ylmethyl}-acetamide]	8 (≈ 18.3 µM)
CC(=O)NC[C@H]1CN(c2ccc(-c3ccc(CNC(=O)c4cccc(S(C)(=O)=O)c4)cc3)c(F)c2)C(=O)O1 [Compound 4012, N-{4′-[5-(S)-(Acetylamino-methyl)-2-oxo-oxazolidin-3-yl]-2′-fluoro-biphenyl-4-ylmethyl}-3-methanesulfonyl-benzamide]	4 (≈ 7.41 µM)
CC(=O)NC[C@H]1CN(c2ccc(-c3ccc(CNC(=O)/C=C/c4cn(C)c(=O)n(C)c4=O)cc3)c(F)c2)C(=O)O1 [Compound 4005, N-{4′-[5-(S)-(Acetylamino-methyl)-2-oxo-oxazolidin-3-yl]-2′-fluoro-biphenyl-4-ylmethyl}-3-(1,3-dimethyl-2,4-dioxo-1,2,3,4-tetrahydro-pyrimidin-5-yl)-acrylamide]	2 (≈ 3.64 µM)
CC(=O)NC[C@H]1CN(c2ccc(-c3ccc(CS(=O)(=O)c4cnn[nH]4)cc3)c(F)c2)C(=O)O1 [Compound 2025, N-{3-[2-Fluoro-4′-(3H-[1,2,3]triazole-4-sulfonylmethyl)-biphenyl-4-yl]-2-oxo-oxazolidin-5-(S)-ylmethyl}-acetamide]	8 (≈ 16.9 µM)

Next, values leading:

MIC [µg/mL]	Compound
2 (≈ 4.14 µM)	CC(=O)NC[C@H]1CN(c2ccc(-c3ccc(CN4CCN(CC(N)=O)CC4)cc3)c(F)c2)C(=O)O1 [Compound 1003, 2-(4-{4′-[5-(S)-(Acetylamino-methyl)-2-oxo-oxazolidin-3-yl]-2′-fluoro-biphenyl-4-ylmethyl}-piperazin-1-yl)-acetamide]
1 (≈ 2.33 µM)	CC(=O)NC[C@H]1CN(c2cc(F)c(-c3ccc(Cn4cnnn4)cc3)c(F)c2)C(=O)O1 [Compound 1048, N-[3-(2,6-Difluoro-4′-tetrazol-1-ylmethyl-biphenyl-4-yl)-2-oxo-oxazolidin-5-(S)-ylmethyl]-acetamide]
0.25 (≈ 0.548 µM)	CC(=O)NC[C@H]1CN(c2ccc(-c3ccc(CSc4nnnn4C)cc3)c(F)c2)C(=O)O1 [Compound 2015, N-{3-[2-Fluoro-4′-(1-methyl-1H-tetrazol-5-ylsulfanylmethyl)-biphenyl-4-yl]-2-oxo-oxazolidin-5-(S)-ylmethyl}-acetamide]
1 (≈ 2.29 µM)	CC(=O)NC[C@H]1CN(c2ccc(-c3ccc(CNCc4ccco4)cc3)c(F)c2)C(=O)O1 [Compound 4026, N-[3-(2-Fluoro-4′-{[(furan-2-ylmethyl)-amino]-methyl}-biphenyl-4-yl)-2-oxo-oxazolidin-5-(S)-ylmethyl]-acetamide]
1 (≈ 2.09 µM)	CC(=O)NC[C@H]1CN(c2ccc(-c3ccc(NC(=O)NCc4ccncc4)cc3)c(F)c2)C(=O)O1 [Compound 6004, N-{3-[2-Fluoro-4′-(3-pyridin-4-ylmethyl-ureido)-biphenyl-4-yl]-2-oxo-oxazolidin-5-(S)-ylmethyl}-acetamide]
